molecular target: T1, Zcchc11 enzyme (Homo sapiens, UniProt Q5TAX3); experiment: TUTase assay (Zcchc11 assay, Lin28a-dependent polyuridylation of pre-let-7); assay type: biochemical; details: LIN28A 10 nM, Zcchc11 0.2 nM, 5′-fluorescein pre-let-7 miRNA 2 nM, UTP 5 uM, room temperature, 30 minutes pre-incubation; read-out: Potency Lin28a-dep Z11 IC50
T1 construct: made in house; host or cells: HEK293 cells (Zcchc11); E. coli Rosetta II (LIN28A)
T1 sequence (Q5TAX3 212-1420): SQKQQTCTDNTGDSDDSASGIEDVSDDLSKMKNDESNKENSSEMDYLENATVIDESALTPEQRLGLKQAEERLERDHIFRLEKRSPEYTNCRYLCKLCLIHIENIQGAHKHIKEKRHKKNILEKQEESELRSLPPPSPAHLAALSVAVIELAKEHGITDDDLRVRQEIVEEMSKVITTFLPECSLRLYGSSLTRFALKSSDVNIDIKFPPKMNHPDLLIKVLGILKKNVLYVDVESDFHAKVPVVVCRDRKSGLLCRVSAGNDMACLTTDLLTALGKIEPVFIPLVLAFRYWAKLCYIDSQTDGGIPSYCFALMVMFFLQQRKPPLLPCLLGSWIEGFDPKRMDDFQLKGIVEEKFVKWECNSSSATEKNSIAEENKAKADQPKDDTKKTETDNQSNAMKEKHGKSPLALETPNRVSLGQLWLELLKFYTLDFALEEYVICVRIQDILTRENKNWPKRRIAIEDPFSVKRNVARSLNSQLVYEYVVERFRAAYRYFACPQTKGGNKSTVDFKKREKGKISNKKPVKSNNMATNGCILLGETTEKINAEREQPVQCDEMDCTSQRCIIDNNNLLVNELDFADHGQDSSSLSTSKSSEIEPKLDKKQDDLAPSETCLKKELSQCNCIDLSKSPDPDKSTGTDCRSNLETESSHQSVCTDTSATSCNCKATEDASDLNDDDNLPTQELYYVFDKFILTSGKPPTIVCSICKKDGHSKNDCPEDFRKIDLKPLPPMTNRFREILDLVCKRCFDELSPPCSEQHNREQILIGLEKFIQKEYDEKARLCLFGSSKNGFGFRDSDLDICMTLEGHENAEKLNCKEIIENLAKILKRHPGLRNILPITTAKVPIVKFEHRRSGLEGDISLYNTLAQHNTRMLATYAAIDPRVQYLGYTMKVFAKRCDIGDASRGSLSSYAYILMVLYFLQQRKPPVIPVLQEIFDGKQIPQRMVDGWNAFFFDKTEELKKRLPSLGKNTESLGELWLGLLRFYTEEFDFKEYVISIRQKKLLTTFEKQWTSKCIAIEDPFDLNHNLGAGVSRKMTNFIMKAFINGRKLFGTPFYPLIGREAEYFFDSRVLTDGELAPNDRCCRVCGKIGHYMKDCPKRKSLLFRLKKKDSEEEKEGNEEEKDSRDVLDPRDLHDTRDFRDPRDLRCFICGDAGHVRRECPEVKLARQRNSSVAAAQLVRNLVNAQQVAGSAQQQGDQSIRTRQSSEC
Procedure, shortened: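 Human Zcchc11 residues 212-1420 (HEK293-expressed, MBP tag cleaved, C-terminal FLAG) at 0.2 nM, with 10 nM full-length human LIN28A and 2 nM 5′-fluorescein pre-let-7, preincubated with compound 30 min at room temperature. Reaction started with 5 uM UTP plus 4 nM 3′-rhodamine A20 quench probe; fluorescein loss read kinetically, IC50 from initial rates.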

| IC50 [nM] | SMILES |
| --- | --- |
| ≤ 1000 | O=C(O)c1cn(-c2cnccn2)c2cc(N3C[C@@H](F)C[C@@H]3COc3ncccc3Cl)c(Cl)cc2c1=O [Example 41, 6-chloro-7-[(2R,4S)-2-{[(3-chloropyridin-2-yl)oxy]methyl}-4-fluoropyrrolidin-1-yl]-4-oxo-1-(pyrazin-2-yl)-1,4-dihydroquinoline-3-carboxylic acid] |
| 1000 to 10000 | O=C(O)c1cn(C2CN(CCO)C2)c2cc(N3CCC[C@@H]3COc3ncccc3Cl)c(Cl)cc2c1=O [Example 34, 6-Chloro-7-[(2R)-2-{[(3-chloropyridin-2-yl)oxy]methyl}pyrrolidin-1-yl]-1-[1-(2-hydroxyethyl)azetidin-3-yl]-4-oxo-1,4-dihydroquinoline-3-carboxylic acid] |
| ≤ 1000 | COC1CC(n2cc(C(=O)O)c(=O)c3cc(F)c(N4CCC[C@@H]4COc4ncccc4C)cc32)C1 (stereo partly drawn) [Example 30, (R)-6-fluoro-1-(3-methoxycyclobutyl)-7-(2-(((3-methylpyridin-2-yl)oxy)methyl)pyrrolidin-1-yl)-4-oxo-1,4-dihydroquinoline-3-carboxylic acid] |

same assay, conditions: Lin28a-dependent Zcchc11 (Z11) TUTase activity; read-out: Potency Lin28a-dep Z11 IC50

| IC50 [nM] | SMILES |
| --- | --- |
| ≤ 1000 | Cc1cccnc1OC[C@H]1CCCN1c1cc2c(cc1F)c(=O)c(C(=O)O)cn2-c1ccc(O)c(F)c1 [Compound 120, (R)-6-fluoro-1-(3-fluoro-4-hydroxy-phenyl)-7-(2-(((3-methylpyridin-2-yl)oxy)methyl)pyrrolidin-1-yl)-4-oxo-1,4-dihydro-quinoline-3-carboxylic acid] |
| ≤ 1000 | O=C(O)c1cn(-c2ccc(F)cc2F)c2cc(N3CCC[C@@H]3COc3ccccn3)c(F)cc2c1=O [Compound 84, (R)-1-(2,4-difluorophenyl)-6-fluoro-4-oxo-7-(2-((pyridin-2-yloxy)methyl)pyrrolidin-1-yl)-1,4-dihydro-quinoline-3-carboxylic acid] |
| ≤ 1000 | COc1ccc(Cl)c(OC[C@H]2C[C@@H]3C[C@@H]3N2c2cc3c(cc2Cl)c(=O)c(C(=O)O)cn3-c2ccnc(N)c2)n1 (racemic) [Compound 231, Rac-1-(2-aminopyridin-4-yl)-6-chloro-7-((1R,3S,5R)-3-(((3-chloro-6-methoxy-pyridin-2-yl)oxy)methyl)-2-azabicyclo [3.1.0]hexan-2-yl)-4-oxo-1,4-dihydro-quinoline-3-carboxylic acid] |
| ≤ 1000 | Cc1cccnc1OC[C@H]1CCCN1c1c(F)cc2c(=O)c(C(=O)O)cn(-c3ccc(O)cc3)c2c1F [Compound 132, (R)-6,8-difluoro-1-(4-hydroxy-phenyl)-7-(2-(((3-methylpyridin-2-yl)oxy)methyl)pyrrolidin-1-yl)-4-oxo-1,4-dihydro-quinoline-3-carboxylic acid] |
| 10000 to 50000 | O=C(O)c1cn(C2CC2)c2c(Cl)c(N3CCC[C@@H]3COc3ccccn3)c(F)cc2c1=O [Compound 91, (R)-8-chloro-1-cyclopropyl-6-fluoro-4-oxo-7-(2-((pyridin-2-yloxy)methyl)pyrrolidin-1-yl)-1,4-dihydro-quinoline-3-carboxylic acid] |

same assay, conditions: Lin28a-dependent Zcchc11 (Z11) TUTase assay; read-out: Potency Lin28a-dep Z11 IC50

| IC50 [nM] | SMILES |
| --- | --- |
| ≤ 1000 | O=C(O)c1cn(-c2ccnc(N3CCC3)c2)c2cc(N3CCC[C@@H]3COc3ncccc3Cl)c(Cl)cc2c1=O [Example 554, (R)-1-(2-(azetidin-1-yl)pyridin-4-yl)-6-chloro-7-(2-(((3-chloropyridin-2-yl)oxy)methyl)pyrrolidin-1-yl)-4-oxo-1,4-dihydroquinoline-3-carboxylic acid] |
| ≤ 1000 | O=C(O)c1cn(Cc2ccccn2)c2cc(N3CCC[C@@H]3COc3ncccc3Cl)c(Cl)cc2c1=O [Example 576, (R)-6-chloro-7-(2-(((3-chloropyridin-2-yl)oxy)methyl)pyrrolidin-1-yl)-4-oxo-1-(pyridin-2-ylmethyl)-1,4-dihydroquinoline-3-carboxylic acid] |
| ≤ 1000 | COc1ccnc(OC[C@H]2C[C@H]3C[C@H]3N2c2cc3c(cc2Cl)c(=O)c(C(=O)O)cn3-c2ccc(N3CC(N(C)C)C3)nc2)c1Cl [Example 674, 6-chloro-7-((1R,3R,5R)-3-(((3-chloro-4-methoxypyridin-2-yl)oxy)methyl)-2-azabicyclo[3.1.0]hexan-2-yl)-1-(6-(3-(dimethylamino)azetidin-1-yl)pyridin-3-yl)-4-oxo-1,4-dihydroquinoline-3-carboxylic acid] |
| ≤ 1000 | COc1ccc(C)c(OC[C@H]2C[C@H]3C[C@H]3N2c2cc3c(cc2F)c(=O)c(C(=O)O)cn3-c2ccc(N3CC(N(C)C)C3)nc2)n1 [Example 682, 1-(6-(3-(dimethylamino)azetidin-1-yl)pyridin-3-yl)-6-fluoro-7-((1R,3R, 5R)-3-(((6-methoxy-3-methylpyridin-2-yl)oxy)methyl)-2-azabicyclo[3.1.0]hexan-2-yl)-4-oxo-1,4-dihydroquinoline-3-carboxylic acid] |
| ≤ 1000 | CN(C)C1CN(c2ccc(-n3cc(C(=O)O)c(=O)c4cc(Cl)c(N5C[C@@H](O)C[C@@H]5COc5ncccc5Cl)cc43)cn2)C1 [Example 598, 6-chloro-7-((2R,4S)-2-(((3-chloropyridin-2-yl)oxy)methyl)-4-hydroxypyrrolidin-1-yl)-1-(6-(3-(dimethylamino)azetidin-1-yl)pyridin-3-yl)-4-oxo-1,4-dihydroquinoline-3-carboxylic acid] |
| ≤ 1000 | O=C(O)c1cn(-c2ccc(N3CC4(CNC4)C3)nc2)c2cc(N3CCC[C@@H]3COc3ncccc3Cl)c(Cl)cc2c1=O [Example 496, (R)-1-(6-(2,6-diazaspiro[3.3]heptan-2-yl)pyridin-3-yl)-6-chloro-7-(2-(((3-chloropyridin-2-yl)oxy)methyl)pyrrolidin-1-yl)-4-oxo-1,4-dihydroquinoline-3-carboxylic acid] |
| ≤ 1000 | O=C(O)c1cn(-c2ccnc(N3CCC3)c2)c2cc(N3CCC[C@@H]3COc3ccccn3)c(Cl)cc2c1=O [Example 553, (R)-1-(2-(azetidin-1-yl)pyridin-4-yl)-6-chloro-4-oxo-7-(2-((pyridin-2-yloxy)methyl)pyrrolidin-1-yl)-1,4-dihydroquinoline-3-carboxylic acid] |
| 1000 to 10000 | O=C(O)c1cn(Cc2ccccc2)c2cc(N3CCC[C@@H]3COc3ncccc3Cl)c(Cl)cc2c1=O [Example 556, (R)-1-benzyl-6-chloro-7-(2-(((3-chloropyridin-2-yl)oxy)methyl)pyrrolidin-1-yl)-4-oxo-1,4-dihydroquinoline-3-carboxylic acid] |

Further lines, the molecule ahead of its results:

| SMILES | IC50 [nM] |
| --- | --- |
| COCCn1cc(-n2cc(C(=O)O)c(=O)c3cc(Cl)c(N4CCC[C@@H]4COc4ncccc4Cl)cc32)cn1 [Example 435, (R)-6-chloro-7-(2-(((3-chloropyridin-2-yl)oxy)methyl)pyrrolidin-1-yl)-1-(1-(2-methoxy-ethyl)-1H-pyrazol-4-yl)-4-oxo-1,4-dihydroquinoline-3-carboxylic acid] | ≤ 1000 |
| CN(C)c1ccc(-n2cc(C(=O)O)c(=O)c3cc(Cl)c(N4CCC[C@@H]4COc4ncccc4Cl)cc32)cn1 [Example 421, (R)-6-chloro-7-(2-(((3-chloropyridin-2-yl)oxy)methyl)pyrrolidin-1-yl)-1-(6-(dimethyl-amino)pyridin-3-yl)-4-oxo-1,4-dihydroquinoline-3-carboxylic acid] | ≤ 1000 |
| CC1CC1n1cc(C(=O)O)c(=O)c2cc(F)c(N3CCC[C@@H]3COc3ccccn3)cc21 (stereo partly drawn) [Example 446, 6-fluoro-1-(2-methylcyclo-propyl)-4-oxo-7-((R)-2-((pyridin-2-yloxy)methyl)pyrrolidin-1-yl)-1,4-dihydro-quinoline-3-carboxylic acid] | 1000 to 10000 |
